These results are taken from patent US9028845B2, “Chimeric immunomodulatory compounds and methods of using the same-IV” (Dynavax Technologies Corporation, priority 2001, dated 2015).

The assay concerns human PBMCs. In words: Human PBMC cytokine response assay (IFN-γ and IFN-α in cell-free medium by ELISA), with or without cPLGA.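 For IFN-α (pg/ml) mean: 20 µg/mL compound for 24 hours.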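 For IFN-γ (pg/ml) mean: 20 µg/mL compound for 24 hours.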 In kind it is cell-based. The settings on record: for IFN-α (pg/ml) Donor 3 / IFN-γ (pg/ml) Donor 3 / IFN-α (pg/ml) Donor 4 / IFN-γ (pg/ml) Donor 4 / IFN-γ (pg/ml) 28065 / IFN-α (pg/ml) 28065 / IFN-α (pg/ml) 28066 / IFN-γ (pg/ml) 28066 / IFN-α (pg/ml) 28067 / IFN-γ (pg/ml) 28067 / IFN-α (pg/ml) 28068 / IFN-γ (pg/ml) 28068 / IFN-α (pg/ml) mean / IFN-γ (pg/ml) mean: 24 h; for IFN-a / IFN-g / IFN-a mean / IFN-g mean: Table 25; for IFN-a mean / IFN-g mean: mean of donors 28250-28253; for IFN-γ (pg/ml) 28065: donor 28065 (high background), 1000 = outside assay limits; for IFN-α (pg/ml) 28065: donor 28065; for IFN-α (pg/ml) 28066 / IFN-γ (pg/ml) 28066: donor 28066; for IFN-α (pg/ml) 28067 / IFN-γ (pg/ml) 28067: donor 28067; for IFN-α (pg/ml) 28068 / IFN-γ (pg/ml) 28068: donor 28068; for immunomodulatory activity (IFN-γ / IFN-α secretion), in words: used alone (no cPLGA); for IFN-α / IFN-γ / IFN-α mean / IFN-γ mean: Table 13; for IFN-α mean / IFN-γ mean: mean of donors.

[1] abbreviates: donor 28250, polynucleotides/spacers at amounts equivalent to the CIC, spacers alone 9 uM.
[2] abbreviates: 20 ug/ml, + PLGA = premixed with 100 μg/ml cPLGA.
The mark [3] stands for this setting: mean of donors 28065-28068, 20 ug/ml, + PLGA = premixed with 100 μg/ml cPLGA.

On to “5′-ACGTTCG-3′ [Compound P-3, reference compound]”, for which the IFN-a mean stood at 29 pg/mL; the IFN-g mean worked out at 31 pg/mL; the “immunomodulatory activity (IFN-γ / IFN-α secretion), in words” value is reported as “did not have immunomodulatory activity”. Under “20 μg/ml”, the “IFN-α (pg/ml) Donor 3” value came to 0 pg/mL, the “IFN-γ (pg/ml) Donor 3” value turned out to be 1 pg/mL, the “IFN-α (pg/ml) Donor 4” value was 32 pg/mL and the “IFN-γ (pg/ml) Donor 4” value was 3 pg/mL. The substance also came in with an IFN-a (donor 28250) of 16 pg/mL. Also, the IFN-g under setting [1] was 32 pg/mL. For the same substance, where the note is “donor 28251”, the IFN-a stood at 29 pg/mL and the IFN-g amounted to 21 pg/mL. Under “donor 28252”, this substance displayed an IFN-a of 38 pg/mL and an IFN-g of 72 pg/mL. In addition, for the setting “donor 28253”, the IFN-a stood at 31 pg/mL and the IFN-g came out at 1 pg/mL. Moreover, under setting [2], the “IFN-γ (pg/ml) 28065” value worked out at 94 pg/mL, the “IFN-α (pg/ml) 28065” value amounted to 0 pg/mL, the “IFN-α (pg/ml) 28066” value came out at 0 pg/mL and the “IFN-γ (pg/ml) 28066” value came out at 27 pg/mL. Under setting [2], the “IFN-α (pg/ml) 28067” value was determined as 5 pg/mL, the “IFN-γ (pg/ml) 28067” value is 1 pg/mL, the “IFN-α (pg/ml) 28068” value worked out at 0 pg/mL and the “IFN-γ (pg/ml) 28068” value is 0 pg/mL. In addition, where the note is “mean of Donors 3-4, 20 μg/ml”, the “IFN-α (pg/ml) mean” value was 16 pg/mL and the “IFN-γ (pg/ml) mean” value is 2 pg/mL. Under setting [3], the “IFN-α (pg/ml) mean” value was 1 pg/mL and the “IFN-γ (pg/ml) mean” value worked out at 31 pg/mL.
For “5′-ACGTTCG-3′-HEG-5′-AGATGAT-3′-HEG-5′-TCGTCGA-3′ [Compound C-58]”, the IFN-α mean was determined as 24 pg/mL and the IFN-γ mean came out at 209 pg/mL. For the setting “donor 28156”, the IFN-α was 13 pg/mL and the IFN-γ amounted to 404 pg/mL. For the setting “donor 28157”, this substance returned an IFN-α of 30 pg/mL and an IFN-γ of 288 pg/mL. Under “donor 28158”, the IFN-α was 29 pg/mL and the IFN-γ is 59 pg/mL. Moreover, for the setting “donor 28159”, the IFN-α amounted to 23 pg/mL and the IFN-γ was found to be 84 pg/mL.
Regarding “5′-ACGTTCG-3′-HEG-5′-TCGTCGA-3′-HEG-5′-AGATGAT-3′ [Compound C-57]”, the IFN-α mean stood at 40 pg/mL; the IFN-γ mean turned out to be 268 pg/mL; the “immunomodulatory activity (IFN-γ / IFN-α secretion), in words” value is on record as “somewhat more active than C-58”. Under “donor 28156”, this substance registered an IFN-α of 5 pg/mL and an IFN-γ of 419 pg/mL. For the setting “donor 28157”, this substance registered an IFN-α of 52 pg/mL and an IFN-γ of 323 pg/mL. Also, for the setting “donor 28158”, the IFN-α came out at 61 pg/mL and the IFN-γ came out at 67 pg/mL. For the setting “donor 28159”, this substance showed an IFN-α of 42 pg/mL and an IFN-γ of 262 pg/mL.
“5′-AGATGAT-3′ [Compound P-4, reference compound]”: the IFN-a mean worked out at 16 pg/mL; the IFN-g mean was 29 pg/mL; the “immunomodulatory activity (IFN-γ / IFN-α secretion), in words” value is “did not have immunomodulatory activity”. For the setting “20 μg/ml”, the “IFN-α (pg/ml) Donor 3” value is 0 pg/mL, the “IFN-γ (pg/ml) Donor 3” value was 0 pg/mL, the “IFN-α (pg/ml) Donor 4” value came out at 58 pg/mL and the “IFN-γ (pg/ml) Donor 4” value worked out at 3 pg/mL. For the same substance, for the setting “donor 28250”, the IFN-a came to 16 pg/mL. Further, the IFN-g under setting [1] turned out to be 72 pg/mL. Besides, where the note is “donor 28251”, the IFN-a amounted to 16 pg/mL and the IFN-g stood at 1 pg/mL. Where the note is “donor 28252”, this substance came in with an IFN-a of 16 pg/mL and an IFN-g of 43 pg/mL. Where the note is “donor 28253”, this substance displayed an IFN-a of 16 pg/mL and an IFN-g of 1 pg/mL. Under setting [2], the “IFN-γ (pg/ml) 28065” value is 93 pg/mL, the “IFN-α (pg/ml) 28065” value worked out at 0 pg/mL, the “IFN-α (pg/ml) 28066” value was 0 pg/mL and the “IFN-γ (pg/ml) 28066” value is 1 pg/mL. Under setting [2], the “IFN-α (pg/ml) 28067” value was determined as 9 pg/mL, the “IFN-γ (pg/ml) 28067” value stood at 1 pg/mL, the “IFN-α (pg/ml) 28068” value is 0 pg/mL and the “IFN-γ (pg/ml) 28068” value worked out at 1 pg/mL. Moreover, under “mean of Donors 3-4, 20 μg/ml”, the “IFN-α (pg/ml) mean” value turned out to be 29 pg/mL and the “IFN-γ (pg/ml) mean” value amounted to 1 pg/mL. Moreover, under setting [3], the “IFN-α (pg/ml) mean” value was determined as 2 pg/mL and the “IFN-γ (pg/ml) mean” value stood at 24 pg/mL.
